Measurements published in PubChem BioAssay AID330 (DTP/NCI, 2004).
Inconclusive results and toxic doses are left out.

System: P388 leukemia ip, CD2F1 mice, survival T/C
Assay: NCI In Vivo Anticancer Drug Screen. Data for tumor model P388 Leukemia (intraperitoneal) in CD2F1 (CDF1) mice
Settings: endpoint: median survival time, higher = longer survival
Summary of the method: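 Mice carrying the transplanted tumor received test compound or vehicle. Survival was recorded in each group, and the value is the treated-group measurement divided by that of the vehicle-treated control group.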

[1] = dose: 60.0 mg/kg/injection, schedule: Q01DX005 (ip), vehicle: saline with Tween-80
[2] = dose: 120.0 mg/kg/injection, schedule: Q01DX005 (ip), vehicle: saline with Tween-80
[3] = dose: 240.0 mg/kg/injection, schedule: Q01DX005 (ip), vehicle: saline with Tween-80
[4] = dose: 50.0 mg/kg/injection, schedule: Q01DX005 (ip), vehicle: Klucel (hydroxypropylcellulose) (HPC)
[5] = dose: 100.0 mg/kg/injection, schedule: Q01DX005 (ip), vehicle: Klucel (hydroxypropylcellulose) (HPC)
[6] = dose: 100.0 mg/kg/injection, schedule: Q01DX009 (ip), vehicle: saline with Tween-80
[7] = dose: 25.0 mg/kg/injection, schedule: Q01DX005 (ip), vehicle: saline with Tween-80
[8] = dose: 50.0 mg/kg/injection, schedule: Q01DX005 (ip), vehicle: saline with Tween-80
[9] = dose: 100.0 mg/kg/injection, schedule: Q01DX005 (ip), vehicle: saline with Tween-80
[10] = dose: 200.0 mg/kg/injection, schedule: Q01DX005 (ip), vehicle: saline with Tween-80

With `CCCCCCCC[As](CCCCCCCC)SC1OC(COC(C)=O)C(OC(C)=O)C(OC(C)=O)C1OC(C)=O` (stereo unspecified) the T/C (dose: 50.0 mg/kg/injection, schedule: Q01DX009 (ip), vehicle: Klucel (hydroxypropylcellulose) (HPC)) was 102 % of control and the T/C (dose: 100.0 mg/kg/injection, schedule: Q01DX009 (ip), vehicle: Klucel (hydroxypropylcellulose) (HPC)) was 90 % of control.
With `NC1CCNC(O)[N-]1.NC1CCNC(O)[N-]1.[Br][Pd][Br]` (stereo unspecified) the T/C (dose: 60.0 mg/kg/injection, schedule: Q01DX005 (ip), vehicle: Klucel (hydroxypropylcellulose) (HPC)) was 99 % of control, the T/C (dose: 120.0 mg/kg/injection, schedule: Q01DX005 (ip), vehicle: Klucel (hydroxypropylcellulose) (HPC)) was 100 % of control and the T/C (dose: 240.0 mg/kg/injection, schedule: Q01DX005 (ip), vehicle: Klucel (hydroxypropylcellulose) (HPC)) was 102 % of control.
`COc1ccc(C2(c3ccc(OC)cc3)ON(C(c3ccccc3)c3ccccc3)C2=O)cc1` was tested, and the T/C [1] was 95 % of control, the T/C [2] was 91 % of control and the T/C [3] was 89 % of control.
In the case of `c1ccc(-c2cc(-c3cc(-c4ccccn4)[nH]n3)n[nH]2)nc1`, the T/C (dose: 60.0 mg/kg/injection, schedule: Q01DX005 (ip), vehicle: saline + Tween-80 + alcohol) is reported as 91 % of control, the T/C (dose: 120.0 mg/kg/injection, schedule: Q01DX005 (ip), vehicle: saline + Tween-80 + alcohol) is reported as 94 % of control and the T/C (dose: 240.0 mg/kg/injection, schedule: Q01DX005 (ip), vehicle: saline + Tween-80 + alcohol) is reported as 104 % of control.
For `CNc1nc2c(C)ccc3[nH]c(N(C)C)nc3c-2n1`, the T/C (dose: 25.0 mg/kg/injection, schedule: Q01DX005 (ip), vehicle: Klucel (hydroxypropylcellulose) (HPC)) was 100 % of control, the T/C [4] was 99 % of control and the T/C [5] was 91 % of control.
In the case of `Nc1cc(C(=O)Nc2ccc(C3=NCCN3)cc2)cc(C(=O)Nc2ccc(C3=NCCN3)cc2)c1`, the T/C (dose: 32.0 mg/kg/injection, schedule: Q01DX010 (ip), vehicle: saline) is reported as 168 % of control.
`CC(C)CC[NH-].CC(C)CC[NH-].[Cl][Pt+2]([Cl])([Cl])[Cl]` was tested, and the T/C [6] was 176 % of control.
In the case of `COC1=CCC(Cc2ccc[nH]2)=CC1`, the T/C (dose: 100.0 mg/kg/injection, schedule: Q01DX001 (ip), vehicle: distilled water + Tween-80 + alcohol) is reported as 98 % of control, the T/C (dose: 200.0 mg/kg/injection, schedule: Q01DX001 (ip), vehicle: distilled water + Tween-80 + alcohol) is reported as 105 % of control and the T/C (dose: 400.0 mg/kg/injection, schedule: Q01DX001 (ip), vehicle: distilled water + Tween-80 + alcohol) is reported as 107 % of control.
In the case of `Cc1ccc(S(=O)(=O)NC(=O)N(C)NC(=O)C(=O)NCc2ccco2)cc1`, the T/C (dose: 50.0 mg/kg/injection, schedule: Q01DX009 (ip), vehicle: saline with Tween-80) is reported as 103 % of control, the T/C [6] is reported as 103 % of control and the T/C (dose: 200.0 mg/kg/injection, schedule: Q01DX009 (ip), vehicle: saline with Tween-80) is reported as 99 % of control.
With `O=C1c2ccccc2C(=O)N1CC[P+](c1ccc(Cl)cc1)(c1ccc(Cl)cc1)c1ccc(Cl)cc1` the T/C (dose: 25.0 mg/kg/injection, schedule: Q01DX009 (ip), vehicle: other) was 95 % of control.
For `Clc1ccc(-c2cc(-c3cc(-c4ccc(Cl)cc4Cl)n[nH]3)[nH]n2)c(Cl)c1`, the T/C (dose: 60.0 mg/kg/injection, schedule: Q01DX005 (ip), vehicle: Klucel + Tween-80) was 100 % of control, the T/C (dose: 120.0 mg/kg/injection, schedule: Q01DX005 (ip), vehicle: Klucel + Tween-80) was 98 % of control and the T/C (dose: 240.0 mg/kg/injection, schedule: Q01DX005 (ip), vehicle: Klucel + Tween-80) was 90 % of control.
`Cc1ccc(CC2CC(=O)NC2=O)cc1` (stereo unspecified) was tested, and the T/C [1] was 105 % of control, the T/C [2] was 93 % of control and the T/C [3] was 96 % of control.
`COc1cc(/C=N/N2CC(=O)N(c3ccccc3)CC2=O)cc(OC)c1` was tested, and the T/C (dose: 6.25 mg/kg/injection, schedule: Q01DX005 (ip), vehicle: saline with Tween-80) was 97 % of control, the T/C (dose: 12.5 mg/kg/injection, schedule: Q01DX005 (ip), vehicle: saline with Tween-80) was 100 % of control and the T/C [7] was 100 % of control.
In the case of `CN(CCC#N)c1ccc(/C=C(\C#N)c2cccc(C(F)(F)F)c2)cc1`, the T/C [4] is reported as 105 % of control, the T/C [5] is reported as 90 % of control and the T/C (dose: 200.0 mg/kg/injection, schedule: Q01DX005 (ip), vehicle: Klucel (hydroxypropylcellulose) (HPC)) is reported as 96 % of control.
For `COC(=O)Nc1nc2ccc(C(O)(c3ccccc3)c3cccs3)cc2[nH]1` (stereo unspecified), the T/C [7] was 95 % of control, the T/C [8] was 95 % of control and the T/C [9] was 99 % of control.
In the case of `CCOC(=O)Nc1nc2ccc([N+](=O)[O-])cc2s1`, the T/C (dose: 6.25 mg/kg/injection, schedule: Q01DX009 (ip), vehicle: Klucel (hydroxypropylcellulose) (HPC)) is reported as 104 % of control, the T/C (dose: 12.5 mg/kg/injection, schedule: Q01DX009 (ip), vehicle: Klucel (hydroxypropylcellulose) (HPC)) is reported as 107 % of control and the T/C (dose: 25.0 mg/kg/injection, schedule: Q01DX009 (ip), vehicle: Klucel (hydroxypropylcellulose) (HPC)) is reported as 105 % of control.
In the case of `O=C1CC(C2(c3ccccc3)SCCCS2)CO1` (stereo unspecified), the T/C (dose: 100.0 mg/kg/injection, schedule: Q01DX001 (ip), vehicle: Klucel (hydroxypropylcellulose) (HPC)) is reported as 99 % of control, the T/C (dose: 200.0 mg/kg/injection, schedule: Q01DX001 (ip), vehicle: Klucel (hydroxypropylcellulose) (HPC)) is reported as 98 % of control and the T/C (dose: 400.0 mg/kg/injection, schedule: Q01DX001 (ip), vehicle: Klucel (hydroxypropylcellulose) (HPC)) is reported as 100 % of control.
With `O=c1[nH]c(=O)n(C(c2ccccc2)c2ccccc2)cc1F` the T/C (dose: 12.5 mg/kg/injection, schedule: Q01DX009 (ip), vehicle: suspension in saline) was 100 % of control, the T/C (dose: 25.0 mg/kg/injection, schedule: Q01DX009 (ip), vehicle: suspension in saline) was 89 % of control and the T/C (dose: 50.0 mg/kg/injection, schedule: Q01DX009 (ip), vehicle: suspension in saline) was 99 % of control. The T/C (dose: 75.0 mg/kg/injection, schedule: Q01DX009 (ip), vehicle: suspension in saline) was 101 % of control, the T/C (dose: 100.0 mg/kg/injection, schedule: Q01DX009 (ip), vehicle: suspension in saline) was 94 % of control and the T/C (dose: 150.0 mg/kg/injection, schedule: Q01DX009 (ip), vehicle: suspension in saline) was 90 % of control.
For `CN1OC(=O)OC2(CCCCC2)C1=O`, the T/C (dose: 50.0 mg/kg/injection, schedule: Q01DX005 (ip), vehicle: saline) was 96 % of control, the T/C (dose: 100.0 mg/kg/injection, schedule: Q01DX005 (ip), vehicle: saline) was 99 % of control and the T/C (dose: 200.0 mg/kg/injection, schedule: Q01DX005 (ip), vehicle: saline) was 96 % of control.
`Nc1ncnc2nc(/N=N/SCCC(=O)O)[nH]c12` was tested, and the T/C [8] was 108 % of control, the T/C [9] was 103 % of control and the T/C [10] was 100 % of control.
With `Clc1ccccc1/C=C/c1ccnnc1` the T/C (dose: 25.0 mg/kg/injection, schedule: Q01DX001 (ip), vehicle: saline) was 96 % of control, the T/C (dose: 50.0 mg/kg/injection, schedule: Q01DX001 (ip), vehicle: saline) was 95 % of control and the T/C (dose: 100.0 mg/kg/injection, schedule: Q01DX001 (ip), vehicle: saline) was 95 % of control. For the same compound, the T/C (dose: 100.0 mg/kg/injection, schedule: Q01DX001 (ip), vehicle: suspension in saline) was 101 % of control, the T/C (dose: 200.0 mg/kg/injection, schedule: Q01DX001 (ip), vehicle: suspension in saline) was 97 % of control and the T/C (dose: 400.0 mg/kg/injection, schedule: Q01DX001 (ip), vehicle: suspension in saline) was 97 % of control.
`CC(/C=N\N=C(N)N)=N/NC(N)=O` was tested, and the T/C (dose: 50.0 mg/kg/injection, schedule: Q01DX009 (ip), vehicle: saline) was 92 % of control, the T/C (dose: 100.0 mg/kg/injection, schedule: Q01DX009 (ip), vehicle: saline) was 108 % of control and the T/C (dose: 200.0 mg/kg/injection, schedule: Q01DX009 (ip), vehicle: saline) was 115 % of control.
With `CO/N=C1\CC[C@@]2(C)[C@@H](CC[C@@H]3[C@@H]2CC[C@]2(C)C([C@H](C)CCCC(C)C)CC[C@@H]32)C1` (stereo partly specified) the T/C [8] was 97 % of control, the T/C [9] was 95 % of control and the T/C [10] was 100 % of control.
`C=COS(=O)O` was tested, and the T/C (dose: 3.12 mg/kg/injection, schedule: Q01DX009 (ip), vehicle: saline) was 104 % of control, the T/C (dose: 6.25 mg/kg/injection, schedule: Q01DX009 (ip), vehicle: saline) was 104 % of control and the T/C (dose: 12.5 mg/kg/injection, schedule: Q01DX009 (ip), vehicle: saline) was 105 % of control.
